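Interpolation was linear, between the two tested concentrations surrounding the appropriate level; five concentrations were tested over 48 hours in 96-well plates. At the TGI there is no net growth.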

Test systems include HOP-18 NSCLC; NCI-H522 lung; SNB-78 CNS; LXFL 529 NSCLC; M19-MEL melanoma; DMS 114 small cell lung; SN12C renal; XF 498 CNS; OVCAR-8 ovarian; UACC-257 melanoma; KM20L2 colon; DMS 273 small cell lung; DLD-1 colon; UACC-62 melanoma; SK-OV-3 ovarian; RXF-631 renal.
What all share (assay): NCI-60 cell line screen, 48 h

For `COc1c(C)cc2c(C(C)C)c(O)c(O)c(C=O)c2c1O`, the TGI with HOP-18 NSCLC is 71.7 µM; in the experiment on NCI-H522 lung, 60.4 µM; in the experiment with SNB-78 CNS, > 100 µM; in the experiment with LXFL 529 NSCLC, > 100 µM; in the experiment with M19-MEL melanoma it was 81.8 µM; in the experiment on DMS 114 small cell lung it was 37.9 µM. The TGI is 75.8 µM in the experiment with SN12C renal; > 100 µM in the experiment on XF 498 CNS; 83.8 µM in the experiment on OVCAR-8 ovarian; 59.4 µM in the experiment with UACC-257 melanoma; 88.1 µM in the experiment with KM20L2 colon; 59.1 µM in the experiment with DMS 273 small cell lung. Also, the TGI in the experiment with DLD-1 colon was > 100 µM; in the experiment on UACC-62 melanoma, 47.5 µM; in the experiment on SK-OV-3 ovarian, > 100 µM.
Take `CCOC(=O)C(=O)C=P(c1ccccc1)(c1ccccc1)c1ccccc1`: the TGI in the experiment on HOP-18 NSCLC, in the experiment on NCI-H522 lung, in the experiment with RXF-631 renal, with SNB-78 CNS, in the experiment on LXFL 529 NSCLC and in the experiment with M19-MEL melanoma was > 100 µM in each case. Besides, the TGI in the experiment on DMS 114 small cell lung, in the experiment with SN12C renal, in the experiment with OVCAR-8 ovarian, with UACC-257 melanoma, with KM20L2 colon and in the experiment on DMS 273 small cell lung was > 100 µM throughout. Further, the TGI with DLD-1 colon, with UACC-62 melanoma and in the experiment on SK-OV-3 ovarian was > 100 µM throughout.
As for `CCOC(=O)Cn1c2ccccc2c(=O)c2cc(C)c(C)c(C#N)c21`, the TGI with HOP-18 NSCLC, in the experiment with RXF-631 renal, in the experiment with SNB-78 CNS, in the experiment with LXFL 529 NSCLC, in the experiment with M19-MEL melanoma and in the experiment with SN12C renal was > 100 µM throughout. Further, the TGI in the experiment with XF 498 CNS was 97.2 µM; in the experiment with OVCAR-8 ovarian it was > 100 µM; in the experiment with UACC-257 melanoma, > 100 µM; in the experiment with KM20L2 colon, > 100 µM; in the experiment with DMS 273 small cell lung it was > 100 µM; with DLD-1 colon it was > 100 µM. For the same compound, the TGI in the experiment with UACC-62 melanoma and in the experiment with SK-OV-3 ovarian was > 100 µM in each case.
In the case of `CCOC(=O)C1SC(=Nc2ccc(OC)c(OC)c2)N=C1C` (stereo unspecified), the TGI in the experiment with HOP-18 NSCLC was > 100 µM; with NCI-H522 lung, 32.3 µM; with RXF-631 renal it was > 100 µM; in the experiment on SNB-78 CNS, > 100 µM; in the experiment on LXFL 529 NSCLC, > 100 µM; with DMS 114 small cell lung it was 80.5 µM. In addition, the TGI was > 100 µM in the experiment on SN12C renal; 68.8 µM with XF 498 CNS; > 100 µM in the experiment on OVCAR-8 ovarian; > 100 µM with UACC-257 melanoma; 76.3 µM in the experiment on KM20L2 colon; > 100 µM with DMS 273 small cell lung. Further, the values for the TGI in the experiment on DLD-1 colon, in the experiment on UACC-62 melanoma and in the experiment with SK-OV-3 ovarian were > 100 µM, 67.9 µM and > 100 µM, respectively.
As to `N#Cc1ccc(Cc2ccccn2)cc1Cl`, the TGI with HOP-18 NSCLC, in the experiment on NCI-H522 lung, in the experiment on RXF-631 renal, in the experiment on SNB-78 CNS, in the experiment on LXFL 529 NSCLC and with M19-MEL melanoma was > 100 µM throughout. Further, the TGI in the experiment with DMS 114 small cell lung, with SN12C renal, in the experiment on OVCAR-8 ovarian, in the experiment with UACC-257 melanoma, in the experiment on DMS 273 small cell lung and with DLD-1 colon was > 100 µM in each case. For the same compound, the TGI in the experiment on UACC-62 melanoma and with SK-OV-3 ovarian was > 100 µM each time.
Take `CCCCCCCCCCCC(=O)OC[C@H](C[As](=O)(O)O)OC(=O)CCCCCCCCCCC`: the TGI was found to be 20.3 µM in the experiment on HOP-18 NSCLC; 5.09 µM in the experiment on NCI-H522 lung; 9.45 µM with SNB-78 CNS; 14 µM in the experiment on LXFL 529 NSCLC; 22 µM in the experiment on M19-MEL melanoma; 4.77 µM in the experiment with DMS 114 small cell lung. For the same compound, the TGI turned out to be 16.4 µM with SN12C renal; 24 µM in the experiment with XF 498 CNS; 27.8 µM with OVCAR-8 ovarian; 24.9 µM in the experiment on UACC-257 melanoma; 18.8 µM with KM20L2 colon; 15 µM in the experiment on DMS 273 small cell lung. In addition, the figures for the TGI in the experiment with DLD-1 colon, in the experiment on UACC-62 melanoma and in the experiment on SK-OV-3 ovarian were 26.7 µM, 6.98 µM and 28.9 µM, respectively.
Consider `CNC(=O)NCNC(=O)NC`, for which the TGI in the experiment on HOP-18 NSCLC, in the experiment with RXF-631 renal, with SNB-78 CNS, with LXFL 529 NSCLC, in the experiment with M19-MEL melanoma and with DMS 114 small cell lung was > 100 µM throughout. Further, the TGI in the experiment on OVCAR-8 ovarian, in the experiment with UACC-257 melanoma, in the experiment with KM20L2 colon, in the experiment with DMS 273 small cell lung, in the experiment with DLD-1 colon and in the experiment on UACC-62 melanoma was > 100 µM each time. Also, the TGI with SK-OV-3 ovarian is > 100 µM.
Take `CC(CCC[C@H](C)CO)[C@H]1[C@@H](O)C(O)C2[C@@H]3C[C@@H](O)C4(O)C[C@@H](O)CC[C@]4(C)C3CC[C@@]21C` (stereo partly specified): the TGI in the experiment with HOP-18 NSCLC, with NCI-H522 lung, in the experiment on SNB-78 CNS, in the experiment with LXFL 529 NSCLC, with M19-MEL melanoma and in the experiment with DMS 114 small cell lung was > 100 µM throughout. The TGI in the experiment with SN12C renal, in the experiment with XF 498 CNS, in the experiment on OVCAR-8 ovarian, in the experiment with UACC-257 melanoma, in the experiment with KM20L2 colon and with DMS 273 small cell lung was > 100 µM throughout. Moreover, the TGI with DLD-1 colon, in the experiment with UACC-62 melanoma and with SK-OV-3 ovarian was > 100 µM throughout.
On to `COc1cc2c(c(OC)c1OC)-c1ccc(SC)c(=O)cc1C(CC(=O)Oc1cccc([N+](=O)[O-])c1)C2` (stereo unspecified), for which the TGI in the experiment with HOP-18 NSCLC is > 100 µM; in the experiment with NCI-H522 lung, 5.81 µM; in the experiment with RXF-631 renal it was 12.8 µM; in the experiment with SNB-78 CNS, > 100 µM; in the experiment on LXFL 529 NSCLC it was > 100 µM; with M19-MEL melanoma it was > 100 µM. Besides, the TGI with DMS 114 small cell lung was 3.95 µM; with SN12C renal it was > 76.9 µM; in the experiment on XF 498 CNS it was 20.3 µM; in the experiment with OVCAR-8 ovarian, 10.4 µM; in the experiment with UACC-257 melanoma, > 100 µM; in the experiment with KM20L2 colon, 2.06 µM. Moreover, the TGI with DMS 273 small cell lung is > 100 µM; in the experiment with DLD-1 colon it was > 56.9 µM; with SK-OV-3 ovarian it was > 100 µM.

The record behind these values is PubChem BioAssay (NCI).
